Data as given in ChEMBL document CHEMBL1201862, “PubChem BioAssay data set” (2004).
Active and inactive are the calls of the source.

Key:
[1] = test system: CHO; test: CHO cell viability loss, potency – luminescence, cytotoxicity control for TLR9-MyD88 binding inhibitor project, dose response (AID 588339); type: functional, cell-based, hamster; conditions: Cricetulus griseus;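 note: CHO cells stably coexpressing TLR9 and MyD88 fusions from primary screen; compound exposure lasted 48 hours before viability readout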
[2] = biological target: UDP-galactopyranose mutase (Mycobacterium tuberculosis, UniProt P9WIQ1); test: Inhibitors of Mycobacterium tuberculosis UDP-galactopyranose mutase (UGM) enzyme Measured in Biochemical System Using Plate Reader - 2105-02_Inhibitor_Dose_CherryPick_Activity. [Related pubchem assays (depositor defined):AID504439]
[3] = biological target: Beta Lactamase (Pseudomonas aeruginosa, UniProt Q932Y6); test: BLA reporter interference, concentration series – BLA reporter cells, FRET fluorescence, artefact control for TLR9-MyD88 binding inhibitor project, dose response (AID 588341); type: cell-based;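 note: cell based assay in CHO-K1 cells stably expressing beta-lactamase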
[4] = biological target: Dual specificity protein phosphatase 3 (Homo sapiens, UniProt P51452); test: SAR VHR1 Fluorescent Assay for In Vitro dose response studies Set 3. [Related pubchem assays (depositor defined):AID1654, AID1661, AID1878]; type: functional
[5] = test system: Streptococcus sp. 'group A'; test: Streptococcus pyogenes SK(-)GAS viability under kanamycin – luminescence, BacTiterGlo, confirmation, counter-screen for streptokinase expression inhibitor project, dose response (AID 1900); type: functional, organism-based
[6] = test system: Streptococcus; test: GAS UMAA2166 growth inhibition – luminescence, BacTiterGlo, counter-screen for streptokinase expression inhibitor project, dose response (AID 1915); type: functional, organism-based;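 note: potency for reduction of bacterial viability or growth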
[7] = NIH-3T3 fibroblast cytotoxicity, dose response, cytotoxicity control, cell-based, fluorescence, Alamar Blue, secondary assay (AID 2327); type: functional;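 note: NIH-3T3 mouse fibroblasts cultured with fluconazole at 8 µg/mL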
[8] = fluconazole-exposed Candida albicans growth modulators – fluorescence, retest, confirmation (AID 2467); type: functional, cell-based
[9] = biological target: T1, Streptokinase A (Streptococcus pyogenes serotype M1, UniProt P10520); test: viability-normalized secreted streptokinase activity reduction – plasminogen activation absorbance, OD405, dose response (AID 1914); type: functional, Streptococcus pyogenes M1 GAS;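 note: secreted streptokinase activity via plasminogen activation per viability signal from cell pellet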
T1 sequence (P10520 whole entry): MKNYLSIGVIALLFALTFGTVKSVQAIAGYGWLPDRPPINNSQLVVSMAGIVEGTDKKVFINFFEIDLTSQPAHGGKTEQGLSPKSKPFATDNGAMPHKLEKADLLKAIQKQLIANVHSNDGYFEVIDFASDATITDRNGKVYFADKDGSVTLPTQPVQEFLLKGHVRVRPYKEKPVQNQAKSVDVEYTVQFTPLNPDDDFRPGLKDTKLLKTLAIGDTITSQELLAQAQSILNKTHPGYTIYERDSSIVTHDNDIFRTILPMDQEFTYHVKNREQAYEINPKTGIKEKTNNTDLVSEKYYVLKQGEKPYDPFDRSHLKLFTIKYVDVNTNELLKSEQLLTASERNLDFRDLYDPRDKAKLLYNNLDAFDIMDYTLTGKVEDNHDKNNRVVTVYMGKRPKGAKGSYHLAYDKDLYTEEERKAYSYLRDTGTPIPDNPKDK

[10] = biological target: Cysteine protease ATG4B (Homo sapiens, UniProt Q9Y4P1); type: functional;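 note: Fluorescence-based dose-response confirmation assay measuring inhibition of ATG4B activity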
[11] = biological target: Phospholipase A2 (Homo sapiens, UniProt P04054); type: functional;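 note: confirmatory dose-response counterscreen on phospholipase A2, testing hits that came from an ultra-high-throughput screen for ATG4B inhibitors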
[12] = test system: HEK293; test: HEK293T cell viability loss, resazurin readout – resazurin fluorescence, cytotoxicity control for NF-kB activator project, SAR follow-up (AID 493251); type: functional, cell-based; conditions: Homo sapiens
[13] = test system: HEK293; test: SAR Analysis of small molecule inhibitors of B-cell specific antigen receptor-induced NF-kB activation in a HEK-293T cell line using a luminescence assay - Set 2. [Related pubchem assays (depositor defined):AID435022, AID435025, AID489021]; type: functional, cell-based; conditions: Homo sapiens
[14] = test system: Jurkat; test: SAR Analysis of small molecule inhibitors of […] specific antigen receptor-induced NF-kB activation in a Jurkat cell line using a luminescence assay - Set 3. [Related pubchem assays (depositor defined):AID435022, AID435025, AID465]; type: functional, cell-based; conditions: Homo sapiens
[15] = biological target: Cytochrome P450 2C19 (Homo sapiens, UniProt P33261); test: Cytochrome panel assay with activity outcomes. Panel member name: p450-cyp2c19 Compounds with AC50 equal or less than 10 uM are considered active; type: functional; conditions: read-out: AC50
[16] = biological target: Cytochrome P450 3A4 (Homo sapiens, UniProt P08684);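 note: CYP3A4 tested as one member of a cytochrome P450 panel screen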
[17] = biological target: Keap1/Nrf2 (Homo sapiens, UniProt Q14145); test: disruptors of Keap1 binding to Nrf2 peptide – biochemical, fluorescence polarization, cherry-picked samples, dose response (AID 588683)
[18] = biological target: Melanocortin receptor 4 (Homo sapiens, UniProt P32245); type: functional, cell-based;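 note: Cell-based assay with luminescence read-out, confirmatory dose-response testing for agonist activity of biased ligands at MC4R; human U2OS cells with tagged receptor and beta-arrestin; potency of agonists that increase receptor coupling to beta-arrestin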
[19] = test system: HeLa; test: toxicity to human HeLa cells – cell-based, 48 h, plate reader, cherry-picks, cytotoxicity control, dose response (AID 504942); type: functional
[20] = biological target: Acyl-homoserine lactone acylase PvdQ (Pseudomonas aeruginosa (strain LESB58), UniProt Q9I194); test: PvdQ acylase enzyme activity blockers – biochemical, fluorescence, plate reader and imaging, cherry-picks, dose response (AID 493231)
[21] = biological target: Glyceraldehyde-3-phosphate dehydrogenase (Homo sapiens, UniProt P04406)
[22] = biological target: T2, Tyrosine-protein phosphatase non-receptor type 7 (Homo sapiens, UniProt P35236); type: functional
T2 sequence (P35236 whole entry): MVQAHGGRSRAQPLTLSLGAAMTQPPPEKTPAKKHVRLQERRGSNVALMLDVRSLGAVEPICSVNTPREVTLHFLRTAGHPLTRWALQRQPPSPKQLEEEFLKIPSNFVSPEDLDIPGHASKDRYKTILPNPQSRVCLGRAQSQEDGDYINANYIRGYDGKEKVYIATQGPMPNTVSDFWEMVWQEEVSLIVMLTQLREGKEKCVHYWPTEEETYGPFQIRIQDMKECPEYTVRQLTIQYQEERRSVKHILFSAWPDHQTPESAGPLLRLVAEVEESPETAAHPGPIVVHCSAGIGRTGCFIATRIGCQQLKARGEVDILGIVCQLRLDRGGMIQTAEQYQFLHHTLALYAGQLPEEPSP

[23] = biological target: T3, Dual specificity protein phosphatase 6 (Rattus norvegicus, UniProt Q64346); type: functional
T3 sequence (Q64346 whole entry): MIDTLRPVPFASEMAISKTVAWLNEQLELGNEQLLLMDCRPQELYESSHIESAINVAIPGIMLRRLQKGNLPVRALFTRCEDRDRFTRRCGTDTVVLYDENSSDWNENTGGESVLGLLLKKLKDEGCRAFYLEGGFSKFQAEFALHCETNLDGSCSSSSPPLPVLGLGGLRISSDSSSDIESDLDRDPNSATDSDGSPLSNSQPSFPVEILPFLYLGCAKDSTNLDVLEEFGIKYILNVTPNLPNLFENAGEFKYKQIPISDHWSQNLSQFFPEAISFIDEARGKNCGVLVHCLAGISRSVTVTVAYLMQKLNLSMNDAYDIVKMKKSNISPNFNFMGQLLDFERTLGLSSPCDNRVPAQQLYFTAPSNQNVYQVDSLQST

[24] = biological target: T3, Dual specificity protein phosphatase 6
[25] = biological target: Cytochrome P450 2D6 (Homo sapiens, UniProt P10635);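 note: CYP2D6 member of a cytochrome P450 panel assay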
[26] = test system: Escherichia coli; test: microbe, parasite or virus in culture
[27] = test system: Jurkat; test: blockers of NF-kB activation in T cells – Jurkat, luciferase reporter, luminescence, B- and T-cell, dose response (AID 489004); type: functional, cell-based; conditions: Homo sapiens;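 note: NF-kB luciferase reporter Jurkat cells stimulated with PMA plus ionomycin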
[28] = HEK-293T viability loss, compound-treated – cell-based, uHTS hits, cytotoxicity control for B/T-cell NF-kB inhibitor project, dose response (AID 489019); type: functional;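 note: IC50 reflects cytotoxicity as loss of cell viability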
[29] = biological target: Intestinal-type alkaline phosphatase (Mus musculus, UniProt P24822); test: PubChem AID 488874; type: functional
[30] = test system: BJ; test: cells; type: functional, cell-based; conditions: Homo sapiens
[31] = test system: BJ; test: BJ-TERT fibroblast viability loss – cell-based, RAS-independent, luminescence, dose response (AID 1933); type: functional; conditions: Homo sapiens
[32] = test system: BJ; test: BJ-TERT-LT-ST fibroblast viability loss – cell-based, RAS-independent, luminescence, dose response (AID 1935); type: functional; conditions: Homo sapiens;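 note: BJ fibroblasts immortalized with TERT plus LT and ST oncogenes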
[33] = biological target: Beta-galactosidase (Escherichia coli, UniProt Q8VNN2); test: PubChem AID 485352; type: functional
[34] = biological target: T4, Alkaline phosphatase, tissue-nonspecific isozyme (Homo sapiens, UniProt P05186); test: inhibition of tissue-nonspecific alkaline phosphatase – biochemical, dose response (AID 488882); type: functional
T4 sequence (P05186 whole entry): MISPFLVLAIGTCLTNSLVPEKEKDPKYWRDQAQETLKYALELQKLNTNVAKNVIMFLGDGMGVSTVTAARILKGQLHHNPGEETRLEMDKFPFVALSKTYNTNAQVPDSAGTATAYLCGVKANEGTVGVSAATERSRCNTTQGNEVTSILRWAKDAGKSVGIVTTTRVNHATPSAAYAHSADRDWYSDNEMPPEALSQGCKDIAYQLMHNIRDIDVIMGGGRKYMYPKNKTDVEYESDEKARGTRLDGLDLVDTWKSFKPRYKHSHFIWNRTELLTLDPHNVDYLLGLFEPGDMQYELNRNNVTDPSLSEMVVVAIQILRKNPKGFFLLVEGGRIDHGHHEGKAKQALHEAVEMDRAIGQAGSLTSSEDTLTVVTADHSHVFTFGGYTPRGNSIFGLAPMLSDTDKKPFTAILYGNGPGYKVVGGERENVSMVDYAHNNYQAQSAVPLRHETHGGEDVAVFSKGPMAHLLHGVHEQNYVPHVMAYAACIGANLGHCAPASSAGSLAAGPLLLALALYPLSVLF

[35] = DRD fibroblast viability loss – cell-based, non-viral oncogenic, luminescence, dose response (AID 1934); type: functional; conditions: Homo sapiens
[36] = biological target: T5, Intestinal-type alkaline phosphatase (Homo sapiens, UniProt P09923); test: inhibition of human intestinal alkaline phosphatase – biochemical, luminescent, uHTS hits, set 2, dose response (AID 488793); type: functional
[37] = biological target: G-protein coupled receptor 55 (Homo sapiens, UniProt Q9Y2T6); test: selective activators of receptor GPR55 – imaging, U2OS cells, beta-arrestin-GFP redistribution, primary screen (AID 1961); type: functional
[38] = biological target: T6, Type-1 angiotensin II receptor (Homo sapiens, UniProt P30556); test: antagonism of angiotensin II type 1 receptor – cell-based, uHTS hits, selectivity assay for APJ receptor antagonist project, dose response (AID 463214); type: functional;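 note: antagonist potency against angiotensin II stimulated AT1 response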
T6 sequence (P30556 whole entry): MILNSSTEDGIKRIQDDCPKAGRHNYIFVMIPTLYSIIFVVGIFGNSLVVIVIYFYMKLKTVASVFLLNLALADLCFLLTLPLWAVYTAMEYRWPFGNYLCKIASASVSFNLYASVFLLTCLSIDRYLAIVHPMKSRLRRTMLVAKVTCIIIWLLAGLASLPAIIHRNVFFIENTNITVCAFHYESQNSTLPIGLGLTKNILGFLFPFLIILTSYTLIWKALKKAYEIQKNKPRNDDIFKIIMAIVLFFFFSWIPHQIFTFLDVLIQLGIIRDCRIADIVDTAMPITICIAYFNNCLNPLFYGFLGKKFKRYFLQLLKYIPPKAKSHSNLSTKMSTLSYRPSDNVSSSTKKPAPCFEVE

[39] = biological target: T5, Intestinal-type alkaline phosphatase; test: Dose Response confirmation of uHTS hits from a small molecule inhibitors of human intestinal alkaline phosphatase via a luminescent assay. [Related pubchem assays (depositor defined):AID2544, AID2574]; type: functional

T5 sequence (P09923 whole entry): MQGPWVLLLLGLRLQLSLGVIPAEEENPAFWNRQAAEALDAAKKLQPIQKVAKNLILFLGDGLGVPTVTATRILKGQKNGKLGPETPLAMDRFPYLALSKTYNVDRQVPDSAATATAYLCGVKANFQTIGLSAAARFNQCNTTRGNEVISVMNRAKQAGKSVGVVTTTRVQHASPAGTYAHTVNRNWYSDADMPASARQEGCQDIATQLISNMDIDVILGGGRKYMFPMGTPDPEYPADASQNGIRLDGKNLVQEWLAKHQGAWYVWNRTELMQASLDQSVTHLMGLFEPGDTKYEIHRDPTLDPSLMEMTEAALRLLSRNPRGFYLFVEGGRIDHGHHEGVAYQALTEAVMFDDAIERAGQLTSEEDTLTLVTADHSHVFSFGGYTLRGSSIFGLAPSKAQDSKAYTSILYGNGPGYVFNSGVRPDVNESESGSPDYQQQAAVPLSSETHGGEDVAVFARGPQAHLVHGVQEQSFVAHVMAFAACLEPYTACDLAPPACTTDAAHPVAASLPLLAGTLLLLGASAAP
Cytochrome P450 2C19, sequence (P33261 whole entry): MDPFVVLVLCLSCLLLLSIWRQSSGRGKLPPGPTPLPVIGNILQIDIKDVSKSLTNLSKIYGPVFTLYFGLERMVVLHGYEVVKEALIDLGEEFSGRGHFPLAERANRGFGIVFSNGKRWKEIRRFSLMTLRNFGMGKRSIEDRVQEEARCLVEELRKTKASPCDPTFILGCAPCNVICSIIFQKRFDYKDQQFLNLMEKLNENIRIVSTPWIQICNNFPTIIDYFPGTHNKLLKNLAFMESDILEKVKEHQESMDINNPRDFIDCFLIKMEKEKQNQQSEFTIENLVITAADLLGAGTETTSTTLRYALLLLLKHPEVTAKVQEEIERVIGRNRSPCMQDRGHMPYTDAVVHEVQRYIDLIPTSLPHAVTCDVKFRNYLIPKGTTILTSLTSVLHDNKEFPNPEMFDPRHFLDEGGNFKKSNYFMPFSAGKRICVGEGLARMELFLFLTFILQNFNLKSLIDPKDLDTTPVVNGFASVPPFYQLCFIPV
Cytochrome P450 2D6, sequence (P10635 whole entry): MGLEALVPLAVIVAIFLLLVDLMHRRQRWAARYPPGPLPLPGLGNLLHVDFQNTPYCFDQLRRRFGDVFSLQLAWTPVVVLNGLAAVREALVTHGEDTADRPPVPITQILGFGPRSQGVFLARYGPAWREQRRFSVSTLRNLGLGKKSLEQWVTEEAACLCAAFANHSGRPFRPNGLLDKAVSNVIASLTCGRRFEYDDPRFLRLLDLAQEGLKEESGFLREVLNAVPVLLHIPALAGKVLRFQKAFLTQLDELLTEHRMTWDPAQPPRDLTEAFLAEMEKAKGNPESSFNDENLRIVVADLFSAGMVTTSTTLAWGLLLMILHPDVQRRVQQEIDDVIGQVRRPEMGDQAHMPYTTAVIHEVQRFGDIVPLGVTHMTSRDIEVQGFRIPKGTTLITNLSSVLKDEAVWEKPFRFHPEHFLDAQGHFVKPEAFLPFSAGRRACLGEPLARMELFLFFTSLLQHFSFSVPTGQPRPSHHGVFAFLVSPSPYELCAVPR
Dual specificity protein phosphatase 3, sequence (P51452 whole entry): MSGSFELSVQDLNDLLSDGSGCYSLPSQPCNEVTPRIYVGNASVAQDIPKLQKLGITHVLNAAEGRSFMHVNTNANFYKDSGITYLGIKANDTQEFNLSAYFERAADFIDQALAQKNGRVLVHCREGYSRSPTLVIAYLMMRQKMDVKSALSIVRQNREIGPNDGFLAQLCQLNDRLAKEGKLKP
Beta-galactosidase, sequence (Q8VNN2 whole entry): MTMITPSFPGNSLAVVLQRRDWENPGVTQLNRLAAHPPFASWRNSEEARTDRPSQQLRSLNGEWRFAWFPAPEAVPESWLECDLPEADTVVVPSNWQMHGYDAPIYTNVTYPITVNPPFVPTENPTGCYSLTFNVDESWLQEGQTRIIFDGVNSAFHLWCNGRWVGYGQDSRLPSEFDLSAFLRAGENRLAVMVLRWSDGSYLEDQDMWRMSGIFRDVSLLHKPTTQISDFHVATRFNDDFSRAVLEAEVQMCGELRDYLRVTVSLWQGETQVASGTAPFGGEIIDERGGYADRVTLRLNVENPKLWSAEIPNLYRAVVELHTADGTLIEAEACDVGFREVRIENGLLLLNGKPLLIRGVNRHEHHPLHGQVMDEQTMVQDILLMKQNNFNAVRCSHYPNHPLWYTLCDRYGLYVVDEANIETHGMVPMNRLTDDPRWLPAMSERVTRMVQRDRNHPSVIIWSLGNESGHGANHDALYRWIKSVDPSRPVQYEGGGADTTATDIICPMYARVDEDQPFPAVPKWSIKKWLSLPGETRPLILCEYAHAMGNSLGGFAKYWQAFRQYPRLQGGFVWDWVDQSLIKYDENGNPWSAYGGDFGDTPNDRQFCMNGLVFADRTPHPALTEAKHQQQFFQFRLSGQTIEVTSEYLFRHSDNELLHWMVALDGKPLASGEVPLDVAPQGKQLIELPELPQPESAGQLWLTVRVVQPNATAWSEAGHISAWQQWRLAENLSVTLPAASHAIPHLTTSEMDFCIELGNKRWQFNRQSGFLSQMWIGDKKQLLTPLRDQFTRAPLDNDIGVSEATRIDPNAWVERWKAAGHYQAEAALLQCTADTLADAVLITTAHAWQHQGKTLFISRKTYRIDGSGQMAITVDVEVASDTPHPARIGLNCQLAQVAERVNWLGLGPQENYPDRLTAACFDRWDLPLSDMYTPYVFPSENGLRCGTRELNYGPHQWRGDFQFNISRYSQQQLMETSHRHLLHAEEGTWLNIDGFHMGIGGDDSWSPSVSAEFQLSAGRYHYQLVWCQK
Glyceraldehyde-3-phosphate dehydrogenase, sequence (P04406 whole entry): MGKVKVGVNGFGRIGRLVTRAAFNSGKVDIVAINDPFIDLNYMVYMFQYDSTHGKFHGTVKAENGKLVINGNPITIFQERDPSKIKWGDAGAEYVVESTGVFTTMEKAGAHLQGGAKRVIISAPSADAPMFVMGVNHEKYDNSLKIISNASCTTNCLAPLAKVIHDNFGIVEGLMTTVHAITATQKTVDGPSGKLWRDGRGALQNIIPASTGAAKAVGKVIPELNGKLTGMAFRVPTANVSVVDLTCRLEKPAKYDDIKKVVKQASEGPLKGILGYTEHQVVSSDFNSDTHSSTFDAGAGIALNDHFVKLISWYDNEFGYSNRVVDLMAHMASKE
Intestinal-type alkaline phosphatase (Mus musculus, UniProt P24822), sequence (P24822 whole entry): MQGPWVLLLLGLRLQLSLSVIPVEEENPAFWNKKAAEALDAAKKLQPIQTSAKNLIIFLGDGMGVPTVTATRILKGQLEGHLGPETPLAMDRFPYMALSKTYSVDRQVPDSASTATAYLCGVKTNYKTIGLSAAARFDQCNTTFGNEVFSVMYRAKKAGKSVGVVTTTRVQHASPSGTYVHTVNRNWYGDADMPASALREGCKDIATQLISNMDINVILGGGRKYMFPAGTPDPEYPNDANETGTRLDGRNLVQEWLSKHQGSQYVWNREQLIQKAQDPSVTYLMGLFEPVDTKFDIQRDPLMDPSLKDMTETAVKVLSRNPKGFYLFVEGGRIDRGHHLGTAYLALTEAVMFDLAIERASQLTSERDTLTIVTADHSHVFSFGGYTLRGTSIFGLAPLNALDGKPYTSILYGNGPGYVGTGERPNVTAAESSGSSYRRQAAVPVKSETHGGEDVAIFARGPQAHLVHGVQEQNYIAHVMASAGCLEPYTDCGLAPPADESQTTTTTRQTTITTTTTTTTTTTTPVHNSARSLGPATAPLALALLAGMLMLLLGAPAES
Melanocortin receptor 4, sequence (P32245 whole entry): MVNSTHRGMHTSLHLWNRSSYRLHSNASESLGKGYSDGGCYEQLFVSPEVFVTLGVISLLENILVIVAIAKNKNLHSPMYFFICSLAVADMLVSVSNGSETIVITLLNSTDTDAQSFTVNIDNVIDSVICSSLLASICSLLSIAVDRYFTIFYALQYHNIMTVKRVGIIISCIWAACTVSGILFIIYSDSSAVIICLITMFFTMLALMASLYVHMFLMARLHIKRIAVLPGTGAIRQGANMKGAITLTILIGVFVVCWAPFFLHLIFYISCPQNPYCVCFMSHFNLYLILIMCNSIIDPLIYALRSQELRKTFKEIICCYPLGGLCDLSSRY
Cysteine protease ATG4B, sequence (Q9Y4P1 whole entry): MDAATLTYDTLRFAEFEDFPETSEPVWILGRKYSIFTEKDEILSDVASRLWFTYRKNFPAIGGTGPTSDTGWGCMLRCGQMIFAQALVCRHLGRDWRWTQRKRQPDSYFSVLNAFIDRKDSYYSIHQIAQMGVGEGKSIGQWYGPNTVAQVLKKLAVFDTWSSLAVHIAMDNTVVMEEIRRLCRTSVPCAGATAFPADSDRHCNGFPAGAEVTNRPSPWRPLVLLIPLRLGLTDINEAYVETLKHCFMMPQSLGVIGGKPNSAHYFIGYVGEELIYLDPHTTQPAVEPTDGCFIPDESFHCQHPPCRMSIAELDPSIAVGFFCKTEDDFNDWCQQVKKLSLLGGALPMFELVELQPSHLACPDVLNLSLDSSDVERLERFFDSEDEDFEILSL
Phospholipase A2, sequence (P04054 whole entry): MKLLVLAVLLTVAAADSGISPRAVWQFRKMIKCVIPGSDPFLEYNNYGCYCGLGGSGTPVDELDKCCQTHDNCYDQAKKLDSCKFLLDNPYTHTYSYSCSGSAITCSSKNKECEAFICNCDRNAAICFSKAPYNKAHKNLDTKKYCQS
UDP-galactopyranose mutase, sequence (P9WIQ1 whole entry): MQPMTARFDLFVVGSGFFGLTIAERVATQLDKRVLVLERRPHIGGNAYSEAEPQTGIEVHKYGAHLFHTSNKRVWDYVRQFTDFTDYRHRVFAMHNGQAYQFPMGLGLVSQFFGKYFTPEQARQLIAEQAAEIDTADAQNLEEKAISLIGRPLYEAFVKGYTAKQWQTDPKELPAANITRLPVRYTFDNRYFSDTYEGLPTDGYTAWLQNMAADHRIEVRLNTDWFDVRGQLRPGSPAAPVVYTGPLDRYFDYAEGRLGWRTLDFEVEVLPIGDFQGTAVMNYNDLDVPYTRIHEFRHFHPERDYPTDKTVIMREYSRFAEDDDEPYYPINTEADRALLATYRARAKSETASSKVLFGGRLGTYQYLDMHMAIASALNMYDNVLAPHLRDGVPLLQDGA

O=C(NCc1cccc(F)c1)c1cccc2c1C(=O)c1ccc(N3CCC(Cc4ccccc4)CC3)cc1S2(=O)=O
IC50 [1]: > 49.8 µM (inactive) | AC50 [2]: 5.93 µM (active) | IC50 [3]: 3.21 µM (active)

COc1ccc(-c2nnc(Nc3nc4ccc(SC)cc4s3)o2)cc1
IC50 [4]: 15.4 µM (active)

O=C1NC(=O)/C(=C/c2ccccc2Oc2ccc(Cl)cc2)S1
EC50 [5]: 7.87 µM (active) | EC50 [6]: 7.13 µM (active) | EC50 [7]: > 160 µM (inactive) | EC50 [8]: 5.01 µM (active) | EC50 [9]: > 50 µM (not active) | IC50 [10]: 9.09 µM (active) | IC50 [11]: 13.9 µM (active)

CNC(=O)CCc1nc(-c2ccc(C)cc2)no1
IC50 [12]: > 80 µM (inactive) | IC50 [13]: > 80 µM (inactive) | IC50 [14]: > 80 µM (inactive)

O=C(OC1CCN(c2ccc([N+](=O)[O-])cc2)CC1)c1ccccc1
AC50 [15]: 0.794 µM (inconclusive) | AC50 [16]: inconclusive

CCCCOc1nc2nc(-c3ccco3)n(Cc3ccco3)c(N)c-2c1C#N
AC50 [17]: > 52 µM (inactive)

Cc1ccc(O)c(C(=O)/C=C/c2ccc3c(c2)OCCO3)c1
EC50 [18]: > 89.2 µM (inactive) | AC50 [19]: 73.2 µM (active) | AC50 [20]: 1.14 µM (active)

Cc1ccc(O)c2c1C1C=CCC1C(C(=O)O)N2 (stereo not given)
IC50 [21]: > 100 µM (not active) | IC50 [22]: 2.63 µM (active) | IC50 [23]: 86.4 µM (active) | IC50 [24]: > 100 µM (inactive)

NC(=O)CC(c1ccccc1)c1ccco1 (stereo not given)
AC50 [15]: 28.2 µM (inconclusive) | AC50 [25]: inconclusive

Cc1c(Cl)cccc1NC(=O)C1NC(=O)CC1c1ccccc1 (stereo not given)
AC50 [26]: 27.6 µM (active)

CC(=O)OC(C)(C)/C=C/C(=O)[C@](C)(O)C1[C@H](O)C[C@@]2(C)C3CC=C4C(C[C@H](O)C(=O)C4(C)C)[C@]3(C)C(=O)C[C@]12C (stereo not given in full)
IC50 [27]: 3.03 µM (active) | IC50 [28]: > 80 µM (inactive)

C=CCN1C(=O)/C(=C\C=C2\N(C)c3ccccc3C2(C)C)SC1=S
IC50 [29]: 33.4 µM (active) | EC50 [30]: 42.9 µM (active) | EC50 [31]: > 150 µM (not active) | EC50 [32]: > 150 µM (not active) | EC50 [33]: > 40 µM (inactive) | IC50 [34]: 8.19 µM (active) | EC50 [35]: > 150 µM (not active) | IC50 [36]: 11 µM (active) | EC50 [37]: > 32 µM (inactive) | IC50 [38]: > 40 µM (not active) | IC50 [39]: 15.9 µM (inactive)
